From BindingDB's records for doi:10.1016/j.bmcl.2013.04.070 (2013) come the findings set out here.

The target of this experiment is Presenilin-1 (Homo sapiens, UniProt P49768). The experiment is described as follows: Modulation of human gamma-secretase presenilin-1 subunit expressed in CHO cells coexpressing human APP assessed as decrease in amyloid beta 42 generation after 24 hrs by ELISA. A general note: In an ELISA, binding on a coated surface is turned into a signal by an enzyme label.

For the compound `CCCCCCCCOC(=O)C1(C)CCc2c(C)c(OCC(=O)O)c(C)c(C)c2O1` (stereo unspecified), the IC50 (as a rule, the point on the concentration scale where inhibition reaches its midpoint) was determined as 31.6 µM.
